“Also recorded” adds a separate entry of the source.
What was measured:
pregnant CD-1 mice = assay: LPS-induced preterm birth (PTB) model in mice; assay type: in vivo, mouse; design: key to In vivo PTB (heatmap grade of efficacy): 0: No effect; No effect 01234 Maximum inhibition/efficacy; No effect 01234 Maximum inhibition/efficacy; No effect 01234 Maximum inhibition/efficacy; 4: Maximum inhibition/efficacy; details: for In vivo PTB (heatmap grade of efficacy): LPS 10 μg i.p. at G16.5, peptide 2 mg/kg/day s.c. every 12 h; for Activity in delaying labor in the PTB model: LPS i.p. at G16.5, 2 mg/kg/day s.c.
Method: Timed-pregnant CD-1 mice at 16.5 days of gestation (G16.5) were anesthetized with 2% isoflurane and received an intraperitoneal injection of LPS (n = 4 per group, a single dose of 10 μg) (Nadeau-Vallée et al., [2015], and Kakinuma et al., [1997]). A dosage of 2 mg/kg/day of peptide 1, 5, or 6 or vehicle was injected subcutaneously in the neck, every 12 h until delivery. On G16.5, a dose of 1 mg/kg was injected 30 min before stimulation with LPS (to allow distribution of drugs to target tissues) and 1 mg/kg was injected 12 h after stimulation (n = 4 each treatment). Mice delivery was assessed every hour until term (G19–G19.5). A mouse is considered as delivering prematurely if the first pup is delivered earlier than G18.5.
Figure 9 The effects of peptides 1, 5, and 6 on prevention of PTB. (A) Schematic of the CD-1 mouse PTB model. In brief, pregnant dams on day 16.5 of gestation (G16.5) were subcutaneously pretreated with peptides 1, 5, and 6 or vehicle, followed by LPS, and observed for delivery of pups. A dam was considered as delivering preterm if at least one pup was delivered before G18.5. (B) The rates of PTB in dams treated with peptides 1, 5, and 6 are grouped into (3R)- (left) and (3S)- (right) derivatives; n = 4–5 dams per treatment group.

IL-1R = assay: Radioligand displacement of [125I]-peptide 1 in RAW-Blue macrophage cells; assay type: binding; details: for Percentage of displacement of [125I]-1, relative to unlabeled peptide 1, ±SEM: 100 μM cold peptide pre-incubated 20 min, then 600 nM [125I]-peptide 1 for 2 h at 37°C, gamma counter, mean ± SEM, three independent experiments
Method: Displacement of radiolabeled peptide 1 was performed as described previously (Quiniou et al., [2008]). Briefly, RAW-Blue macrophage cells (InVivogen; San Diego, CA) were pre-incubated for 20 min with 100 μM of non-radiolabeled (“cold”) peptide 1, 5, or 6 followed by incubation for 2 h at 37°C with [^125I]-peptide 1 at 600 nM concentration to ensure maximal specific binding (Quiniou et al., [2008]). Cells were washed four times with PBS buffer and lysed with 0.1 N NaOH/0.1% Triton X-100. Bound radioactivity was measured on cell lysates with a Hidex AMG gamma counter (Hidex; Turku Finland). Data are representative of three independent experiments.
Peptide 1 is known to bind to IL-1R (Quiniou et al., [2008]). To determine if the Agl and Hgl derivatives occupied the same binding site as peptide 1, a radio-ligand displacement assay was used to determine the extent to which peptides 5 and 6 displaced radiolabeled 1.

IL-1β = assay: qPCR of IL-1β-induced IL-1β expression in HEK-Blue IL-33/IL-1β cells; assay type: cell-based, human; design: key to qPCR IL-1β (heatmap grade of inhibition): 0: No effect; No effect 01234 Maximum inhibition/efficacy; No effect 01234 Maximum inhibition/efficacy; No effect 01234 Maximum inhibition/efficacy; 4: Maximum inhibition/efficacy; details: for qPCR IL-1β (heatmap grade of inhibition): HEK-Blue cells, peptide 10^-6 M or Kineret 1.0 mg/mL 30 min, then IL-1β 100 ng/mL 4 h (legend: overnight); for Suppression of IL-1β transcription: HEK blue cells, 10^-6 M pre-treatment, IL-1β stimulation
Method: HEK-Blue IL-33/IL-1β cells were purchased from InvivoGen (San Diego, CA) and used at passages under 15. HEK-Blue cells were cultured in DMEM growth medium supplemented with 10% serum, 50 U/mL penicillin, […] streptomycin, […] zeocin, and […] hygromycin. Cells were grown in regular conditions (37°C, 5% CO2). Cells were serum starved overnight and treated with 100 ng/mL IL-1β for 4 h. Cells were pre-incubated for 30 min with peptides 1, 5, or 6 (10^−6M) or Kineret (1.0 mg/mL) prior to the experiments to reach equilibrium (n = 4 each treatment). Cells were harvested and incubated for 5 min in RIBOzol (AMRESCO). RNA was extracted according to manufacturer's protocol and RNA concentration and integrity were measured with a NanoDrop 1,000 spectrophotometer. A total of 500 ng RNA was used to synthetize cDNA using iScript Reverse Transcription SuperMix (Bio-Rad, Hercules, CA). Quantitative gene expression analysis was performed on Stratagene MXPro3000 (Stratagene) with SYBR Green Master Mix (Bio-Rad). Gene expression levels were normalized to 18S universal primer (Ambion Life Technology, Burlington ON, Canada). Genes analyzed include IL1β, IL6, and PTGHS2 [Prostaglandin H synthetase 2 or cyclooxygenase-2 (COX-2)]. Data are representative of 3 experiments (each with n = 4 per treatment group).
Figure 8 The effects of peptides 1, 5, and 6 on the expression of pro-inflammatory genes. HEK-Blue cells were pre-treated with peptides 1, 5, and 6 as above and stimulated with IL-1β overnight. qPCR was performed on cell lysates using 18S rRNA as internal control. Graphs are sorted in columns by gene of interest (COX-2, IL-1β, or IL-6) and rows by peptide configuration [(3R) or (3S)]. Results are representative of an average of 3 independent experiments (each with n = 4 per treatment group) and are expressed as a fold-change of the non-stimulated control: ^*p < 0.05, ^**p < 0.01, ^***p < 0.001, ^****p < 0.0001 compared to group treated only with IL-1β. Treatment groups that are not labeled with asterisks are statistically non-significant compared to group treated only with IL-1β.

Substance	In vivo PTB (heatmap grade of efficacy) (pregnant CD-1 mice)	Activity in delaying labor in the PTB model (pregnant CD-1 mice)	Percentage of displacement of [125I]-1, relative to unlabeled peptide 1, ±SEM (IL-1R) [%]	qPCR IL-1β (heatmap grade of inhibition) (IL-1β)	Suppression of IL-1β transcription (IL-1β)	Capacity to displace [125I]-1 compared to cold unlabeled peptide 1 (IL-1R; 100 μM cold peptide, 600 nM [125I]-peptide 1)
H-D-Arg-D-Tyr-(3S,4R)-Hgl-D-Val-D-Glu-D-Leu-D-Ala-NH2 [[(3S,4R)-Hgl^3]-1]	4	best activity	78.64 ± 21.22	4	–	–
Kineret: FDA-approved recombinant IL-1 receptor antagonist	0	–	–	4	–	–
H-D-Arg-D-Tyr-(3R,4R)-Hgl-D-Val-D-Glu-D-Leu-D-Ala-NH2 [[(3R,4R)-Hgl^3]-1]	0	–	104.6 ± 6.826	4	–	–
H-D-Arg-D-Tyr-(3R,4S)-Hgl-(S)-Val-D-Glu-D-Leu-D-Ala-NH2 [[(3R,4S)-Hgl^3-(S)-Val^4]-1]	2	–	58.63 ± 13.45	4	–	–
H-D-Arg-D-Tyr-(3R,4R)-Hgl-(S)-Val-D-Glu-D-Leu-D-Ala-NH2 [[(3R,4R)-Hgl^3-(S)-Val^4]-1]	0	–	82.12 ± 14.12	3	–	–
H-D-Arg-D-Tyr-(S)-Agl-(S)-Val-D-Glu-D-Leu-D-Ala-NH2 [[(3S)-Agl^3-(S)-Val^4]-1]	0	–	102.7 ± 8.637	1	ability to suppress the transcription of all three genes was lost	–
H-D-Arg-D-Tyr-D-Thr-D-Val-D-Glu-D-Leu-D-Ala-NH2 [Peptide 1]	4	–	–	4	strong suppression of transcription of all three genes	–
H-D-Arg-D-Tyr-(S)-Agl-D-Val-D-Glu-D-Leu-D-Ala-NH2 [[(3S)-Agl^3]-1]	4	high potency; also recorded: best activity	106.6 ± 12.39	4	–	–
H-D-Arg-D-Tyr-(R)-Agl-(S)-Val-D-Glu-D-Leu-D-Ala-NH2 [[(3R)-Agl^3-(S)-Val^4]-1]	0	–	120.7 ± 15.69	1	ability to suppress the transcription of all three genes was lost	–
H-D-Arg-D-Tyr-(R)-Agl-D-Val-D-Glu-D-Leu-D-Ala-NH2 [[(3R)-Agl^3]-1]	4	high potency; also recorded: best activity	83.55 ± 9.02	4	–	–
H-D-Arg-D-Tyr-(3R,4S)-Hgl-D-Val-D-Glu-D-Leu-D-Ala-NH2 [[(3R,4S)-Hgl^3]-1]	4	best activity	32.13 ± 16.94	4	–	significantly lower (p = 0.0011) ability to compete with radiolabeled peptide 1

Source: publication PMC6381024, “Probing Anti-inflammatory Properties Independent of NF-κB Through Conformational Constraint of Peptide-Based Interleukin-1 Receptor Biased Ligands” (Frontiers in Chemistry, 2019)
